According to patent EP0551518A1, “QUINOLINECARBOXYLIC ACID DERIVATIVE” (NIPPON SHINYAKU COMPANY, LIMITED, priority 1990, dated 1992):
Converted amounts (≈) assume the structure as drawn. Where a name gives a salt, the structure may show the parent alone. Read-outs that look alike come from different tables or passages of the source.

Columns and labels:
Assay type in all cases: cell-based
[1] = tested on: Pseudomonas aeruginosa IFO 3445; assay: Determination of minimal inhibitory concentration of growth (MIC)-1, agar plate dilution method; details: Pseudomonas aeruginosa IFO 3445, agar plate dilution, 10⁶ CFU/ml, 37°C, 18 hours
Procedure: (§1) Method: MIC was determined by the agar plate dilution method in accordance with the standard protocol of Japan Society of Chemotherapy (cf. Chemotherapy 29 (1), 76-79, 1981). Each bacterial culture obtained by 18-hour incubation in a sensitivity assay bouillon medium at 37°C was diluted to 10⁶ CFU/ml with the same medium. Using a microplanter, a sensitivity assay agar medium containing the test drug was inoculated with the diluted culture and incubated at 37°C for 18 hours. The MIC value was then determined. As reference drugs, 6-fluoro-1-methyl-4-oxo-7-(1-piperazinyl)-4H-[1,3]thiazeto[3,2-a]quinoline-3-carboxylic acid (referred to as control), ciprofloxacin (CPFX) and ofloxacin (OFLX) were used.

[2] = tested on: Staphylococcus aureus Smith; assay: as above; details: Staphylococcus aureus Smith, agar plate dilution, 10⁶ CFU/ml, 37°C, 18 hours
Procedure: as §1

[3] = tested on: Staphylococcus aureus OWPH 2125 (MRSA, PCA^r ); assay: as above; details: Staphylococcus aureus OWPH 2125 (MRSA, PCA^r), agar plate dilution, 10⁶ CFU/ml, 37°C, 18 hours
Procedure: as §1

[4] = tested on: Staphylococcus aureus OWPH 1984 (MRSA); assay: as above; details: Staphylococcus aureus OWPH 1984 (MRSA), agar plate dilution, 10⁶ CFU/ml, 37°C, 18 hours
Procedure: as §1

[5] = tested on: Staphylococcus epider-midis IFO 12993; assay: as above; details: Staphylococcus epider-midis IFO 12993, agar plate dilution, 10⁶ CFU/ml, 37°C, 18 hours
Procedure: as §1

[6] = tested on: Escherichia coli KC-14; assay: as above; details: 10⁶ CFU/ml, 37°C
Procedure: as §1

[7] = tested on: Enterococcus faecalis ATCC 29212; assay: as above; details: Enterococcus faecalis ATCC 29212, agar plate dilution, 10⁶ CFU/ml, 37°C, 18 hours
Procedure: as §1

[8] = tested on: Staphylococcus aureus 209-P JC-1; assay: as above; details: Staphylococcus aureus 209-P JC-1, agar plate dilution, 10⁶ CFU/ml, 37°C, 18 hours
Procedure: as §1

[9] = tested on: Bacillus subtilis ATCC 6633; assay: as above; details: Bacillus subtilis ATCC 6633, agar plate dilution, 10⁶ CFU/ml, 37°C, 18 hours
Procedure: as §1

[10] = tested on: Proteus vulgaris HX-19; assay: as above; details: Proteus vulgaris HX-19, agar plate dilution, 10⁶ CFU/ml, 37°C, 18 hours
Procedure: as §1

[11] = tested on: Micrococcus luteus ATCC 9341; assay: as above; details: Micrococcus luteus ATCC 9341, agar plate dilution, 10⁶ CFU/ml, 37°C, 18 hours
Procedure: as §1

[12] = tested on: S. aureus OWPH 2124; assay: Determination of minimal inhibitory concentration (MIC)-2, new quinolone-resistant MRSA; details: Staphylococcus aureus, OWPH2124, 18 h; S. aureus OWPH 2124, new quinolone-resistant and methicillin-resistant; same procedure as Test Example 1
Procedure: as §1
(§2) The antibacterial activity of the compounds obtained in Example 4, Example 25 and Example 26 of the present invention was assayed by the same procedure as in Test Example 1. As reference drugs, 6-fluoro-1-methyl-4-oxo-7-(1-piperazinyl)-4H-[1,3]-thiazeto[3,2-a]quinoline-3-carboxylic acid (referred to as Control), norfloxacin (NFLX) and tosufloxacin (TFLX) were used.

[13] = tested on: S. aureus OWPH 1793; assay: as above; details: Staphylococcus aureus, OWPH1793, 18 h; S. aureus OWPH 1793, new quinolone-resistant and methicillin-resistant; same procedure as Test Example 1
Procedure: as §1, §2

[14] = tested on: S. aureus Sh 44; assay: as above; details: Staphylococcus aureus, SH44, 18 h; S. aureus Sh 44, new quinolone-resistant and methicillin-resistant; same procedure as Test Example 1
Procedure: as §1, §2

[15] = tested on: S. aureus OWPH 2128; assay: as above; details: Staphylococcus aureus, OWPH2128, 18 h; S. aureus OWPH 2128, new quinolone-resistant and methicillin-resistant; same procedure as Test Example 1
Procedure: as §1, §2

[16] = tested on: S. aureus OWPH 2133; assay: as above; details: Staphylococcus aureus, OWPH2133, 18 h; S. aureus OWPH 2133, new quinolone-resistant and methicillin-resistant; same procedure as Test Example 1
Procedure: as §1, §2

[17] = tested on: S. aureus OWPH 1773; assay: as above; details: Staphylococcus aureus, OWPH1773, 18 h; S. aureus OWPH 1773, new quinolone-resistant and methicillin-resistant; same procedure as Test Example 1
Procedure: as §1, §2

[18] = tested on: S. aureus Sh 2; assay: as above; details: Staphylococcus aureus, SH2, 18 h; S. aureus Sh 2, new quinolone-resistant and methicillin-resistant; same procedure as Test Example 1
Procedure: as §1, §2

[19] = tested on: S. aureus OWPH 1792; assay: as above; details: Staphylococcus aureus, OWPH1792, 18 h; S. aureus OWPH 1792, new quinolone-resistant and methicillin-resistant; same procedure as Test Example 1
Procedure: as §1, §2

[20] = tested on: S. aureus OWPH 1796; assay: as above; details: Staphylococcus aureus, OWPH1796, 18 h; S. aureus OWPH 1796, new quinolone-resistant and methicillin-resistant; same procedure as Test Example 1
Procedure: as §1, §2

[21] = tested on: S. aureus OWPH 1786; assay: as above; details: Staphylococcus aureus, OWPH1786, 18 h; S. aureus OWPH 1786, new quinolone-resistant and methicillin-resistant; same procedure as Test Example 1
Procedure: as §1, §2

[22] = tested on: S. aureus Sh 8; assay: as above; details: Staphylococcus aureus, SH8, 18 h; S. aureus Sh 8, new quinolone-resistant and methicillin-resistant; same procedure as Test Example 1
Procedure: as §1, §2

[23] = tested on: S. aureus OWPH 1770; assay: as above; details: Staphylococcus aureus, OWPH1770, 18 h; S. aureus OWPH 1770, new quinolone-resistant and methicillin-resistant; same procedure as Test Example 1
Procedure: as §1, §2

[24] = tested on: S. aureus Sh 47; assay: as above; details: Staphylococcus aureus, SH47, 18 h; S. aureus Sh 47, new quinolone-resistant and methicillin-resistant; same procedure as Test Example 1
Procedure: as §1, §2

[25] = tested on: S. aureus OWPH 2134; assay: as above; details: Staphylococcus aureus, OWPH2134, 18 h; S. aureus OWPH 2134, new quinolone-resistant and methicillin-resistant; same procedure as Test Example 1
Procedure: as §1, §2

[26] = tested on: S. aureus OWPH 2127; assay: as above; details: Staphylococcus aureus, OWPH2127, 18 h; S. aureus OWPH 2127, new quinolone-resistant and methicillin-resistant; same procedure as Test Example 1
Procedure: as §1, §2

[27] = tested on: S. aureus OWPH 1799; assay: as above; details: Staphylococcus aureus, OWPH1799, 18 h; S. aureus OWPH 1799, new quinolone-resistant and methicillin-resistant; same procedure as Test Example 1
Procedure: as §1, §2

[28] = tested on: S. aureus Sh 54; assay: as above; details: Staphylococcus aureus, SH54, 18 h; S. aureus Sh 54, new quinolone-resistant and methicillin-resistant; same procedure as Test Example 1
Procedure: as §1, §2

[29] = Pseudomonas aeruginosa, IFO3445, 18 h, read-out: MIC
[30] = Staphylococcus aureus, MRSA, 18 h, read-out: MIC
[31] = Staphylococcus, IFO12993, 18 h, read-out: MIC
[32] = Escherichia coli, KC14, 18 h, read-out: MIC
[33] = Staphylococcus aureus, 209P, 18 h, read-out: MIC
[34] = Proteus vulgaris, HX19, 18 h, read-out: MIC

Compound | MIC [1, 29] [µg/mL] | MIC ([2]; read-out: MIC) [µg/mL] | MIC [3, 30] [µg/mL] | MIC [4, 30] [µg/mL] | MIC [5, 31] [µg/mL] | MIC [6, 32] [µg/mL] | MIC ([7]; ATCC29212, read-out: MIC) [µg/mL] | MIC [8, 33] [µg/mL] | MIC ([9]; ATCC6633, read-out: MIC) [µg/mL] | MIC [10, 34] [µg/mL] | MIC ([11]; ATCC9341, read-out: MIC) [µg/mL] | also measured
CCNc1ccc(-c2cc3c(cc2F)c(=O)c(C(=O)O)c2n3C(C)S2)cc1 (stereo not shown) [Example 47, 7-(4-Ethylaminophenyl)-6-fluoro-1-methyl-4-oxo-4H-[1,3]thiazeto[3,2-a]quinoline-3-carboxylic acid] | 1.56 (≈ 4.06 µM) | ≤ 0.006 | 0.05 (≈ 0.13 µM) | 0.025 (≈ 0.065 µM) | ≤ 0.006 | 0.2 (≈ 0.52 µM) | 0.1 (≈ 0.26 µM) | 0.025 (≈ 0.065 µM) | ≤ 0.006 | 0.05 (≈ 0.13 µM) | 0.39 (≈ 1.01 µM) | 
CNc1ccc(-c2c(F)cc3c(=O)c(C(=O)O)c4n(c3c2OC)C(C)S4)cc1 (stereo not shown) [Example 49, 6-Fluoro-8-methoxy-1-methyl-7-(4-methylaminophenyl)-4-oxo-4H-[1,3]thiazeto[3,2-a]quinoline-3-carboxylic acid] | 3.13 (≈ 7.82 µM) | ≤ 0.006 | 0.1 (≈ 0.25 µM) | 0.012 (≈ 0.03 µM) | 0.012 (≈ 0.03 µM) | 0.39 (≈ 0.974 µM) | 0.025 (≈ 0.0624 µM) | 0.025 (≈ 0.0624 µM) | ≤ 0.006 | 0.39 (≈ 0.974 µM) | 0.2 (≈ 0.499 µM) | 
CC1Sc2c(C(=O)O)c(=O)c3cc(F)c(-c4ccc(N)cc4)cc3n21.Cl (stereo not shown) [Example 55, 7-(4-Aminophenyl)-6-fluoro-1-methyl-4-oxo-4H-[1,3]thiazeto[3,2-a]quinoline-3-carboxylic acid hydrochloride] | 0.39 | 0.012 | 0.05 | 0.012 | 0.012 | 0.1 | 0.1 | 0.025 | ≤ 0.006 | 0.025 | 0.39 | 
CC1Sc2c(C(=O)O)c(=O)c3cc(F)c(-c4ccc(N)cc4)cc3n21 (stereo not shown) [Example 56, 7-(4-Aminophenyl)-6-fluoro-1-methyl-4-oxo-4H-[1,3]thiazeto[3,2-a]quinoline-3-carboxylic acid 1/2 sulfate] |  |  |  |  |  |  |  |  |  |  |  | MIC [1]: 0.20 μ g/ml; MIC [2]: ≤ 0.006 μ g/ml; MIC [3]: 0.05 μ g/ml; MIC [4]: 0.012 μ g/ml; MIC [5]: 0.012 μ g/ml; MIC ([6]; 18 hours): 0.05 μ g/ml; MIC [7]: 0.05 μ g/ml; MIC [8]: 0.025 μ g/ml; MIC [9]: ≤ 0.006 μ g/ml; MIC [10]: ≤ 0.006 μ g/ml; MIC [11]: 0.20 μ g/ml
CCn1cc(C(=O)O)c(=O)c2cc(F)c(N3CCNCC3)cc21 [NFLX, norfloxacin, reference compound] |  |  |  |  |  |  |  |  |  |  |  | MIC [12]: > 100 µg/mL; MIC [13]: > 100 µg/mL; MIC [14]: > 100 µg/mL; MIC [15]: > 100 µg/mL; MIC [16]: > 100 µg/mL; MIC [17]: > 100 µg/mL; MIC [18]: > 100 µg/mL; MIC [19]: > 100 µg/mL; MIC [20]: > 100 µg/mL; MIC [21]: > 100 µg/mL; MIC [22]: > 100 µg/mL; MIC [23]: > 100 µg/mL; MIC [24]: > 100 µg/mL; MIC [25]: > 100 µg/mL; MIC [26]: > 100 µg/mL; MIC [27]: > 100 µg/mL; MIC [28]: > 100 µg/mL
